Experimental data: article PMC6996489 (Drug Design, Development and Therapy, 2020)

Columns and labels:
[1] = target: T1, human recombinant monoamine oxidase B (MAO B) (Homo sapiens, UniProt P27338); type: biochemical; details: MAO B vs MAO A
T1 sequence (P27338 1-520): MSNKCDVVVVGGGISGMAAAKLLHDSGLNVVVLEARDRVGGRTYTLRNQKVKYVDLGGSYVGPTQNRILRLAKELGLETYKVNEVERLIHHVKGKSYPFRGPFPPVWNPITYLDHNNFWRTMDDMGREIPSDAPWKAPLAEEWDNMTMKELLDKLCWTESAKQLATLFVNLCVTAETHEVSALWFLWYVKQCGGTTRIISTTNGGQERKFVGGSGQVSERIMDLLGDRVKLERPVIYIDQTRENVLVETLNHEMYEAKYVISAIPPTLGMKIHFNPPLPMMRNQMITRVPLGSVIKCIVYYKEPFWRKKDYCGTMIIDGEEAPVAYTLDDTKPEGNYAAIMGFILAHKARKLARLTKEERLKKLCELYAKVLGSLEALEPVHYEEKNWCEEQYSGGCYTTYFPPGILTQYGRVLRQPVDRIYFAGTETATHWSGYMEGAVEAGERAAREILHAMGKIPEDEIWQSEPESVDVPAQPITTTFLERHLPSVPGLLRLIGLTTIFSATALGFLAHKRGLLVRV

AChE = AChE (Homo sapiens, UniProt P22303); assay: Acetylcholine esterase inhibition screening; type: biochemical; details: concentration of 1 µm
BuChE = BuChE (Homo sapiens, UniProt P06276); assay: Butyrylcholine esterase inhibition screening; type: biochemical; details: concentration of 1 µm
MAO B = target: T2, MAO B (Homo sapiens, UniProt P27338); details: seven kynuramine concentrations, Lineweaver–Burk plots
T2 sequence (P27338 1-520): T1 sequence (P27338 1-520)

AChE, sequence (P22303 32-614): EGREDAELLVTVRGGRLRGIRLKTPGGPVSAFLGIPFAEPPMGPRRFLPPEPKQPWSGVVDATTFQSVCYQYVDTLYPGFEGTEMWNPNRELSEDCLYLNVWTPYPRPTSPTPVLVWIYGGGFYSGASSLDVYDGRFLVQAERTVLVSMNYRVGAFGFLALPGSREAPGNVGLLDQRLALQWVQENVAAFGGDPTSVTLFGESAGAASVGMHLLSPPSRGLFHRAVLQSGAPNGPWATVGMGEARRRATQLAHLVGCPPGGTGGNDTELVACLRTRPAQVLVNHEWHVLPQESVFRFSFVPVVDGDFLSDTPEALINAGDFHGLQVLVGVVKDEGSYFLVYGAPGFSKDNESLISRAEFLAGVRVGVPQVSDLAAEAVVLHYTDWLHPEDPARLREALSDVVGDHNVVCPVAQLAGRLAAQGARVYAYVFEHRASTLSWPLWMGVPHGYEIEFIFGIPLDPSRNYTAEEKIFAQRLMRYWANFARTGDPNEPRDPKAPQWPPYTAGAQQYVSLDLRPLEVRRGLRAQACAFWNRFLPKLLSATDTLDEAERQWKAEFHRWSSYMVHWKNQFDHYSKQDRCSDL
BuChE, sequence (P06276 29-602): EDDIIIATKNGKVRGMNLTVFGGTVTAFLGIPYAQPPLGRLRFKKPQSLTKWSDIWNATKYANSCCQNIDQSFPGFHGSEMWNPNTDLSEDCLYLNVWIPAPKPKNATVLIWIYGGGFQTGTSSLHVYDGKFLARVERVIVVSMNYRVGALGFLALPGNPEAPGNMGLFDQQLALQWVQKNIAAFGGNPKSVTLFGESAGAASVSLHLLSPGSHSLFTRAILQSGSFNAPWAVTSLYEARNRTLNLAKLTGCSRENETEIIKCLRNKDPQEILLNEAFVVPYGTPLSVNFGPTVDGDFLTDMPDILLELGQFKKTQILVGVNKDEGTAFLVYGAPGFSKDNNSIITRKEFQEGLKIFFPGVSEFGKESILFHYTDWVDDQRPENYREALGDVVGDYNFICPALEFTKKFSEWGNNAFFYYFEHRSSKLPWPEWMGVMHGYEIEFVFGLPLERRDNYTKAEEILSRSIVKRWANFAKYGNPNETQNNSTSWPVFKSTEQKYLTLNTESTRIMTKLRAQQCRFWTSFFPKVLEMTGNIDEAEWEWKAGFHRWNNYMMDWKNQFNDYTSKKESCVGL

SMILES: O=C(Nc1ccc([N+](=O)[O-])cc1[N+](=O)[O-])c1ccccc1 [Compound 7, N-(2,4-Dinitrophenyl)benzamide]
- fold lower affinity towards MAO B than MAO A [1]: 8.3 fold

SMILES: O=C(Nc1ccc([N+](=O)[O-])cc1[N+](=O)[O-])c1ccc2c(c1)OCO2 [Compound 55, N-(2,4-Dinitrophenyl)benzo[d][1,3]dioxole-5-carboxamide]
- inhibition of AChE at 1 µm (AChE): 24±1.8%
- inhibition of BuChE at 1 µm (BuChE): 57±4.5%
- Type of MAO B inhibition (MAO B): competitive
